# Measurements from ChEMBL document CHEMBL1201862, “PubChem BioAssay data set” (2004).
# Active and inactive are the calls of the source.
# Key:
# [1] = system: Streptococcus sp. 'group A'; assay: Streptococcus pyogenes SK(-)GAS viability under kanamycin – luminescence, BacTiterGlo, confirmation, counter-screen for streptokinase expression inhibitor project, dose response (AID 1900); type: functional, organism-based
# Streptokinase A = target: T1, Streptokinase A (Streptococcus pyogenes serotype M1, UniProt P10520); assay: viability-normalized secreted streptokinase activity reduction – plasminogen activation absorbance, OD405, dose response (AID 1914); type: functional, Streptococcus pyogenes M1 GAS;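 also: secreted streptokinase activity via plasminogen activation per viability signal from cell pellet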
# T1 sequence (P10520 whole entry): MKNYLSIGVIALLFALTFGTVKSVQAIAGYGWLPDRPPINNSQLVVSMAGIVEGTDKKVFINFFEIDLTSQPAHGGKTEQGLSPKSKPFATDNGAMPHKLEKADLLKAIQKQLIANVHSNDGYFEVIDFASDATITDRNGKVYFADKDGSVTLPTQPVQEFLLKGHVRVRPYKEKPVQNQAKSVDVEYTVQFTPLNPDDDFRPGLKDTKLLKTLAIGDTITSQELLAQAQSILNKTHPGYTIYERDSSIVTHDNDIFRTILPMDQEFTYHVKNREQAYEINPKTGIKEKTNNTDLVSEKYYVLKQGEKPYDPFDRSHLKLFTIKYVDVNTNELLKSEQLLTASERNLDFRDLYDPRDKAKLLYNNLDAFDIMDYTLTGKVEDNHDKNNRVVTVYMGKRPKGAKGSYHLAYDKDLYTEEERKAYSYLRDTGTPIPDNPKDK
# Streptococcus = assay: GAS UMAA2166 growth inhibition – luminescence, BacTiterGlo, counter-screen for streptokinase expression inhibitor project, dose response (AID 1915); type: functional, organism-based;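 also: potency for reduction of bacterial viability or growth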
# [2] = target: T2, Ubiquitin-conjugating enzyme E2 N (Homo sapiens, UniProt P61088); type: functional;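 also: Dose-response confirmation in a TR-FRET assay detecting UBC13-driven polyubiquitin chain formation, inhibition measured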
# T2 sequence (P61088 whole entry): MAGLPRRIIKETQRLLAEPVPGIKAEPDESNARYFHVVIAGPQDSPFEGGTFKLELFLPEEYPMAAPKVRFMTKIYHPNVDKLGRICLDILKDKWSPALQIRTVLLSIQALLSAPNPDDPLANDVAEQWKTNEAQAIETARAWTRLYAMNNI
# [3] = viability of uninfected HEp-2 cells – cell-based, HTS, cytotoxicity control for RSV inhibitor project, dose response (AID 2410); type: functional; details: human respiratory syncytial virus
# Cytochrome P450 3A4 = Cytochrome P450 3A4 (Homo sapiens, UniProt P08684); details: Potency;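 also: confirmatory qHTS run detecting inhibitors and substrates of CYP3A4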
# Fatty acid synthase [4] = target: T3, Fatty acid synthase (Homo sapiens, UniProt P49327); assay: inhibition of human FAS-TE enzyme activity – biochemical, endpoint fluorescence intensity, uHTS hits, dose response (AID 624327); type: functional;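 also: fluorescence from hydrolysis of an O-methyl fluorescein acyl ester substrate by the enzyme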
# Fatty acid synthase [5] = target: T3, Fatty acid synthase; assay: inhibition of human FAS-TE enzyme activity – biochemical, kinetic fluorescence intensity, dose response (AID 624326); type: functional;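 also: rate of fluorescence rise from hydrolysis of a fluorogenic O-methyl fluorescein ester substrate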
# Vero = assay: cells; type: functional; details: Chlorocebus sabaeus
# [6] = target: Induced myeloid leukemia cell differentiation protein Mcl-1 (Homo sapiens, UniProt Q07820); type: functional
# [7] = target: T4, Carboxy-terminal domain RNA polymerase II polypeptide A small phosphatase 1 (Homo sapiens, UniProt Q9GZU7); assay: CTDSP1 inhibitors, concentration-response, biochemical, absorbance readout, ultra-high-throughput screen actives (AID 540297); type: functional
# T4 sequence (Q9GZU7 whole entry): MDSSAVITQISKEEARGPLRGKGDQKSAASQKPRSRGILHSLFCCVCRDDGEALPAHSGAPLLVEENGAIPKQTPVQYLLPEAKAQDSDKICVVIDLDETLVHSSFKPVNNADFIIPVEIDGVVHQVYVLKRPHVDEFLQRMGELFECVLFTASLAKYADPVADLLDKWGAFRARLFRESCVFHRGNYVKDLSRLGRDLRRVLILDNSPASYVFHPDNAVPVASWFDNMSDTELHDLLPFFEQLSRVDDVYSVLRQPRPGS
# [8] = target: T5, Short transient receptor potential channel 4 (Mus musculus, UniProt Q9QUQ5); assay: calcium entry via TRPC4 opening agents – cell-based, HEK293 TRPC4/mu-opioid, Fluo-4 calcium, dose response (AID 434937); type: functional
# T5 sequence (Q9QUQ5 whole entry): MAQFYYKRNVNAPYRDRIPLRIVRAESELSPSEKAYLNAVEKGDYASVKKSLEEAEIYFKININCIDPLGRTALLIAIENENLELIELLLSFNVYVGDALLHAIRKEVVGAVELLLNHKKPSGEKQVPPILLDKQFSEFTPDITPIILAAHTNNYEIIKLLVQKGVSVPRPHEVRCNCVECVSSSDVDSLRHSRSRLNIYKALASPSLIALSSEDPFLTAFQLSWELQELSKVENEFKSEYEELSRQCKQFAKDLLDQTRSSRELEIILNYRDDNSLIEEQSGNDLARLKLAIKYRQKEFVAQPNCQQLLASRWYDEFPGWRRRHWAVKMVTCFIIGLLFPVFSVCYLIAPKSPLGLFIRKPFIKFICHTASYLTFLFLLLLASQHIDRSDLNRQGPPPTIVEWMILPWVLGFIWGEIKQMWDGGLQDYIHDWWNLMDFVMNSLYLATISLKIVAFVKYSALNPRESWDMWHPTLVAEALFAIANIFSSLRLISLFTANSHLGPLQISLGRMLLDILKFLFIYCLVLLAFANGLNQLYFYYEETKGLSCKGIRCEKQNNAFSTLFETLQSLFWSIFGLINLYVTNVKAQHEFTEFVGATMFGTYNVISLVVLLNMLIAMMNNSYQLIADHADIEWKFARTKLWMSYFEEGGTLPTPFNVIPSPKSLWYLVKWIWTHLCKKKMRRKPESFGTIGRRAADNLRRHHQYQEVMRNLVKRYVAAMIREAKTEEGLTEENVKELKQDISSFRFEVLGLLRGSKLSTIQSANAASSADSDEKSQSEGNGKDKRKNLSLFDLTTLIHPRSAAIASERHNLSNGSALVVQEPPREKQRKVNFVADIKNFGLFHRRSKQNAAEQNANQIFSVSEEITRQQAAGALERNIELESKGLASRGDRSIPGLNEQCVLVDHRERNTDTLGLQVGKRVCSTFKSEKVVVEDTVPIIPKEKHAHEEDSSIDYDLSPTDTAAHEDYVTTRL
# [9] = viability of PTEN-deleted HCT116 cells – cell-based, HCT116 PTEN knockout, dose response (AID 1047); type: functional;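 also: HCT116 colon tumor cells with PTEN knocked out; cells exposed to compound for 60 hours before readout; potency for loss of cell viability measured by luminescence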
# [10] = viability of HCT116 lacking mutant beta-catenin – cell-based, human colon tumor, dose response (AID 1045); type: functional;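 also: HCT116 colon tumor cells with beta catenin knocked out; cells exposed to compound for 60 hours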
# BJ [11] = assay: BJ-TERT fibroblast viability loss – cell-based, RAS-independent, luminescence, dose response (AID 1933); type: functional; details: Homo sapiens
# BJ [12] = assay: cells; type: functional, cell-based; details: Homo sapiens
# BJ [13] = assay: BJ-TERT-LT-ST fibroblast viability loss – cell-based, RAS-independent, luminescence, dose response (AID 1935); type: functional; details: Homo sapiens;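 also: BJ fibroblasts immortalized with TERT plus LT and ST oncogenes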
# [14] = DRD fibroblast viability loss – cell-based, non-viral oncogenic, luminescence, dose response (AID 1934); type: functional; details: Homo sapiens
# Cytochrome P450 2C19 = Cytochrome P450 2C19 (Homo sapiens, UniProt P33261); assay: Cytochrome panel assay with activity outcomes. Panel member name: p450-cyp2c19 Compounds with AC50 equal or less than 10 uM are considered active; type: functional; details: read-out: AC50
# Cytochrome P450 2C9 = Cytochrome P450 2C9 (Homo sapiens, UniProt P11712)
# [15] = Trypanosoma cruzi growth suppression in host cells – NIH3T3 host cells, beta-gal luminescence, confirmation (AID 2044); type: functional, cell-based;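 also: intracellular parasites grown in NIH/3T3 mouse fibroblasts as host cells; luminescent beta-galactosidase reporter signal from transgenic T. cruzi replicating inside host cells; inhibitors lower the luminescence signal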
# [16] = NIH3T3 cell viability loss – ATP luminescence, mouse fibroblasts, counter-screen, dose response (AID 2010); type: functional, cell-based;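 also: cells exposed to compound for about 90 hours before reading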
# Chain of Cytochrome P450 3A4 (P08684 whole entry): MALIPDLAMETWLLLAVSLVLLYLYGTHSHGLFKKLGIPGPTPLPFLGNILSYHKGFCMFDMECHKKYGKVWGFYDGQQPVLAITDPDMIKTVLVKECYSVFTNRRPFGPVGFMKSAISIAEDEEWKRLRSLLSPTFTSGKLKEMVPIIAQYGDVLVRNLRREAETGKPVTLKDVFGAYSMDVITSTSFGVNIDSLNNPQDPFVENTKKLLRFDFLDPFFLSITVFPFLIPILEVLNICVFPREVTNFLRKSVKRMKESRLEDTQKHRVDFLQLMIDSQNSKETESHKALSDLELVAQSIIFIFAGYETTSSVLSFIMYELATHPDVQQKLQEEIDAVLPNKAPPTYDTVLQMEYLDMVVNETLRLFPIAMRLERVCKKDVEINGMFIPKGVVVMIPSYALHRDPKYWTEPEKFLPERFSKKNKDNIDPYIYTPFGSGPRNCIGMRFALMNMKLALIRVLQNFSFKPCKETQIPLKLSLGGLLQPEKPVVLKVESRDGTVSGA
# Chain of Induced myeloid leukemia cell differentiation protein Mcl-1 (Q07820 whole entry, the tested form may be a part): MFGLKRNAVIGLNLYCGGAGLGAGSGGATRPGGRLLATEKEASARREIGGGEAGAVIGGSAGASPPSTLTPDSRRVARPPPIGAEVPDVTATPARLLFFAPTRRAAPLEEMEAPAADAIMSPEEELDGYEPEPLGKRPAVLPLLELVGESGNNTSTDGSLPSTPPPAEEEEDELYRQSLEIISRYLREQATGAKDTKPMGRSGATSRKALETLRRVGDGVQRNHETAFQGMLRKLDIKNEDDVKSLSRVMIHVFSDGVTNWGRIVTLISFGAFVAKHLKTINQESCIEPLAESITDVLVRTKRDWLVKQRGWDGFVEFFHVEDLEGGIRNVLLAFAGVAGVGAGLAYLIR
# T3 sequence (P49327 whole entry): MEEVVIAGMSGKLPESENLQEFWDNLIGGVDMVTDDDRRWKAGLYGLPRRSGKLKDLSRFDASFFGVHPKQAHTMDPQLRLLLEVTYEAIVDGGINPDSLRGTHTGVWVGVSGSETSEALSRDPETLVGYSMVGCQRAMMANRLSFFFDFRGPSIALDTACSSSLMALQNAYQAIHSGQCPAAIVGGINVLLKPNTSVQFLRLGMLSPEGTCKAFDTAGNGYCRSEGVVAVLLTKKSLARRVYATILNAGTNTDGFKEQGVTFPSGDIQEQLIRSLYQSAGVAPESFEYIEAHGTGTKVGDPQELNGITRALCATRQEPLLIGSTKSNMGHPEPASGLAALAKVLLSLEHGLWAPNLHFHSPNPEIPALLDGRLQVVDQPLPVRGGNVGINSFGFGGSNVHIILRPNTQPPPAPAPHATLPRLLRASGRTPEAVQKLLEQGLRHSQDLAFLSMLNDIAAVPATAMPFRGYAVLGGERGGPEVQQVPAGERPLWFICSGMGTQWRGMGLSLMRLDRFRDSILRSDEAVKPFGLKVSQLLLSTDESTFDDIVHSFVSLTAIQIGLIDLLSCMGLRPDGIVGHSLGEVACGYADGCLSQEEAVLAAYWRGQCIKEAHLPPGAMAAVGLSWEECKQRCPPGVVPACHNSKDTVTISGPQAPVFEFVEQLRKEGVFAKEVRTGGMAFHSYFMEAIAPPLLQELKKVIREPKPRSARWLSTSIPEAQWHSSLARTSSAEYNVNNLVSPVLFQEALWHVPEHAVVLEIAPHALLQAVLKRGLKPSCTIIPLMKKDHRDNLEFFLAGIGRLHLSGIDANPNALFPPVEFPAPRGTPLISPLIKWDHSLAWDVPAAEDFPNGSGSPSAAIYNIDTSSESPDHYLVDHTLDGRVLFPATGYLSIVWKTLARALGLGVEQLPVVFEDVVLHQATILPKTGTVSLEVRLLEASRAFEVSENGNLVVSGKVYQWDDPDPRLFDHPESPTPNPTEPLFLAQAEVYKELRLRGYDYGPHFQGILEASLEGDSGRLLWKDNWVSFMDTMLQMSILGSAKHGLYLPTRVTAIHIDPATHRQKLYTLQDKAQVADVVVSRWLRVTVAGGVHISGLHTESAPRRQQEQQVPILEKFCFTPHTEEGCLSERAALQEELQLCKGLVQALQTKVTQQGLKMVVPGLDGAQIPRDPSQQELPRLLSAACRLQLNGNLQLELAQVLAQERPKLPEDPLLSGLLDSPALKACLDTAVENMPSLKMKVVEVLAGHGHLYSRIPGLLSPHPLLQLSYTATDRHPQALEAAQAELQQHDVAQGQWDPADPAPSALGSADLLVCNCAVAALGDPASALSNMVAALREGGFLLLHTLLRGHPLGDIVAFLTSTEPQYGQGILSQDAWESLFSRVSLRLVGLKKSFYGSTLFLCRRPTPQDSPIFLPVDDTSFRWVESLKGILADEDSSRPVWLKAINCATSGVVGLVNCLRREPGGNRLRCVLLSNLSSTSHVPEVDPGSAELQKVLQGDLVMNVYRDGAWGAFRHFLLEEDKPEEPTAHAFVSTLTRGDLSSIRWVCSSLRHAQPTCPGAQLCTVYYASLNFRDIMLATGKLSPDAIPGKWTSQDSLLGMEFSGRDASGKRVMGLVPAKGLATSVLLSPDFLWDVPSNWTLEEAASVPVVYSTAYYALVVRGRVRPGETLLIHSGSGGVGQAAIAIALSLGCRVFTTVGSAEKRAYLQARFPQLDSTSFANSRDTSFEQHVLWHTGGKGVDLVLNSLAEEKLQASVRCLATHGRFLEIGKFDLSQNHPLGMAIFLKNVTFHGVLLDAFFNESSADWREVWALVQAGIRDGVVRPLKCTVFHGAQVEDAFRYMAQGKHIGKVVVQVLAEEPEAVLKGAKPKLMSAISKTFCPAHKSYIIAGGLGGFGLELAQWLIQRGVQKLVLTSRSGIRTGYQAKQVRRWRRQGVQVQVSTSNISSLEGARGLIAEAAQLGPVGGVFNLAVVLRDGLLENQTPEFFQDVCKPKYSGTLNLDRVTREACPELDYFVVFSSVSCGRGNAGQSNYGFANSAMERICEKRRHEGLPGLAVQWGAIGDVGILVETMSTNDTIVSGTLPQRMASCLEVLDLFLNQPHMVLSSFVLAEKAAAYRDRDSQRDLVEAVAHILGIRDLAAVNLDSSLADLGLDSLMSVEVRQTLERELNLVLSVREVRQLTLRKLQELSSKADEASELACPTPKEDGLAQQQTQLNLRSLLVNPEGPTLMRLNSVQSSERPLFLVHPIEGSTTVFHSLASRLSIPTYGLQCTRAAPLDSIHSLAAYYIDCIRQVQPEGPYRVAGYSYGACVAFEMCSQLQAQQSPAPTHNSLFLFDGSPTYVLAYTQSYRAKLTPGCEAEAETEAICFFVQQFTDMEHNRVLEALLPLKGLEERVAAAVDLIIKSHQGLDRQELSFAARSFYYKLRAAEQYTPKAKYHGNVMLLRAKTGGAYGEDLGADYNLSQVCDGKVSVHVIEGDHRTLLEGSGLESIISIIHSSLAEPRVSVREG
# Chain of Cytochrome P450 2C19 (P33261 whole entry): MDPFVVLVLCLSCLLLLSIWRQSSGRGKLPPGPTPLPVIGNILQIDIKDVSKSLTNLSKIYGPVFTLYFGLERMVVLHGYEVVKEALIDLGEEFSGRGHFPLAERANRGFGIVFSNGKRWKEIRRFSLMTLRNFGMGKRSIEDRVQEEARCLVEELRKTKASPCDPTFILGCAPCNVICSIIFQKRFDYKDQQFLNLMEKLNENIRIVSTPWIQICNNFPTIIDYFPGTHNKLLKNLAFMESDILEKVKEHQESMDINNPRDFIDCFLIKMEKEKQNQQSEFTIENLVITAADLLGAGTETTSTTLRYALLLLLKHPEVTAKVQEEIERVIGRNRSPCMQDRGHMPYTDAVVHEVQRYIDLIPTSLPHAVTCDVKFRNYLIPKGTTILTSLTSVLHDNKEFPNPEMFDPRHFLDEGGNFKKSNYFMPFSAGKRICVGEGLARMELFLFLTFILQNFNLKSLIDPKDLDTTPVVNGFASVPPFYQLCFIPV
# Chain of Cytochrome P450 2C9 (P11712 whole entry): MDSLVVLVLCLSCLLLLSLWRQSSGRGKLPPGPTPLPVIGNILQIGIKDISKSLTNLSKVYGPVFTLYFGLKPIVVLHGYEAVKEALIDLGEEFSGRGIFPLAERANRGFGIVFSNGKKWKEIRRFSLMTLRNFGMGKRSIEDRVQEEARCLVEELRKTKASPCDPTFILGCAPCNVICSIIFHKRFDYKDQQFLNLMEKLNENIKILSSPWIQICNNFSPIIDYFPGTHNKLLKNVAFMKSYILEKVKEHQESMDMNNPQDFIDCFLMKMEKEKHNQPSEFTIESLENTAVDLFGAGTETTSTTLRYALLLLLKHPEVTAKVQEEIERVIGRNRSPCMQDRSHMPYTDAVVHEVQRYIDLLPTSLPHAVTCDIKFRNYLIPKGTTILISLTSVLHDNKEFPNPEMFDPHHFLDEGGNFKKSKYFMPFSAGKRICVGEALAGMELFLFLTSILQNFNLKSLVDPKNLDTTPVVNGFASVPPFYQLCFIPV
structure (smiles),measurement,setting,value
N#Cc1c(-c2c(Cl)cccc2Cl)noc1/C=C/Nc1ccc(C(=O)O)cc1,EC50,[1],1.95 µM (active)
same,EC50,Streptokinase A,> 150 µM (not active)
same,EC50,Streptococcus,17.5 µM (active)
same,IC50,cells,32.6 µM (active)
COc1ccc(C)cc1NC(=O)c1cc(S(=O)(=O)N2CCCCC2)ccc1N1CCOCC1,IC50,[2],> 20 µM (inactive)
c1ccc(-c2nn3c(Cn4nnc5ccccc54)nnc3s2)cc1,IC50,cells,> 25 µM (active)
COc1ccc2nc(NC(=O)c3ccccc3[N+](=O)[O-])sc2c1,CC50,[3],45.6 µM (active)
same,IC50,cells,9.33 µM (active)
Clc1ccc(C2[C@H]3CN(Cc4ccc(-c5ccccc5)cc4)[C@H](c4ccccc4)C34CC2(c2cccnc2)C4)cn1 (stereo partly drawn),AC50,Cytochrome P450 3A4,15.8 µM (inconclusive)
CC(C)c1ccc(CCNC(=O)c2ccc([N+](=O)[O-])cc2)cc1,IC50,Fatty acid synthase [4],1.51 µM (active)
same,IC50,Fatty acid synthase [5],1.71 µM (active)
Cc1cc(O)c(C(=O)/C=C/c2cccc([N+](=O)[O-])c2)c(=O)o1,CC50,Vero,22.6 µM (active)
O=C(CCCc1ccccc1)Nc1cccc([N+](=O)[O-])c1,IC50,Fatty acid synthase [4],7.58 µM (active)
same,IC50,Fatty acid synthase [5],3.7 µM (active)
COCCCNC(=O)/C(C#N)=C/c1ccc(OCC(=O)O)c(OC)c1,IC50,[6],4.75 µM (active)
same,IC50,[7],2.19 µM (active)
CCCn1c(-c2ccc(F)cc2)nc2c(N3CCN(C)CC3)nc(C)nc21,AC50,Cytochrome P450 3A4,12.6 µM (inconclusive)
N#Cc1c(-c2ccccc2)c(-c2ccccc2)nn(CC(=O)NNC(=O)Nc2ccc(Cl)cc2)c1=O,IC50,Fatty acid synthase [4],3.55 µM (active)
same,IC50,Fatty acid synthase [5],3.01 µM (active)
COc1ccc(C(=O)C2CCCN(C3CSCCSC3)C2)cc1OC (stereo not drawn),EC50,[8],0.944 µM (active)
CN(C)c1ccc(/C=C/C(=O)c2ccccc2)cc1[N+](=O)[O-],EC50,[9],8.26 µM (active)
same,EC50,[10],7.13 µM (active)
CC(C)c1n[nH]c2c1C(C1C=CCCC1)C(C#N)=C(N)O2 (stereo not drawn),CC50,Vero,21.9 µM (active)
NCCCCc1ccc2ccc3cccc4ccc1c2c34,IC50,[2],> 20 µM (inactive)
same,CC50,Vero,22.6 µM (active)
Nc1c(C(=O)NCc2ccco2)c2nc3ccccc3nc2n1Cc1ccc(F)cc1,EC50,[9],168 µM (active)
same,EC50,[10],348 µM (active)
CN1C[C@@H]2C(c3ccccc3)C3(c4ccc(C#N)cc4)CC2(C3)[C@H]1c1ccccc1 (stereo partly drawn),AC50,Cytochrome P450 3A4,25.1 µM (inconclusive)
NC(=S)N=Nc1c(O)[nH]c2ccccc12,IC50,[2],> 20 µM (inactive)
CCO/C(O)=C1/C(C)=NC(SC)=C(C#N)C1CC(C)C (stereo not drawn),EC50,BJ [11],7.78 µM (active)
same,EC50,BJ [12],35 µM (inconclusive)
same,EC50,BJ [13],6.28 µM (inconclusive)
same,EC50,[14],2.97 µM (active)
O=[N+]([O-])c1ccc(N2CCNCC2)cc1NC1CC1,EC50,[8],0.168 µM (active)
same,AC50,Cytochrome P450 2C19,25.1 µM (inconclusive)
same,AC50,Cytochrome P450 2C9,15.8 µM (inconclusive)
Cc1ccccc1C(=O)Nc1nc(-c2cccnc2)cs1,IC50,[6],> 54 µM (active)
c1ccc2c(c1)ccc1ncccc12,AC50,Cytochrome P450 3A4,31.6 µM (inconclusive)
CC1=C(/C=C/C(C)=C/C=C/C(C)=C\C=O)C(C)(C)CCC1,AC50,Cytochrome P450 3A4,31.6 µM (inconclusive)
CCCN(CCC)CCNC(=O)CCC(=O)Nc1ccc2nc(N3CCOCC3)cc(C)c2c1,EC50,[8],0.473 µM (active)
CN(CCc1ccccn1)C(=O)CC1C(=O)NCCN1Cc1ccccc1C(F)(F)F (stereo not drawn),EC50,[8],5.96 µM (active)
COc1ccc([C@@H]2[C@@H]3C(=O)N(C(C)(C)C)C(=O)[C@@H]3[C@]3(Cc4ccc(Cl)cc4)C(=O)N(c4ccc(Br)cc4)C(=O)N23)cc1,IC50,Fatty acid synthase [4],11.5 µM (active)
same,IC50,Fatty acid synthase [5],11.2 µM (active)
COc1ccc(C[C@H]2CN3C(=NC[C@@H]3Cc3ccc(O)cc3)N2CCNC(=O)c2ccc(C)c(Br)c2)cc1,IC50,[2],> 20 µM (inactive)
CCN(CC)CCSc1nc2cc(OC)ccc2[nH]1,EC50,[8],0.668 µM (active)
O=C(Nc1ccn(CCCNCc2cccc3ccccc23)c(=O)n1)OCc1ccccc1,CC50,Vero,> 25 µM (active)
O=C(C=Cc1ccccc1)c1cccs1,CC50,Vero,> 25 µM (active)
CC(=O)N1N=C(c2ccc(Br)cc2)CC1c1cccc([N+](=O)[O-])c1 (stereo not drawn),IC50,Fatty acid synthase [4],7.1 µM (active)
same,IC50,Fatty acid synthase [5],5.14 µM (active)
COc1cc(/C=N/NC(=O)c2sc(N)c(C#N)c2C)ccc1O,IC50,[2],> 20 µM (inactive)
C=CCn1c(/N=C/c2ccc(N(C)C)cc2)nc2ccccc21,EC50,[8],6.68 µM (active)
COc1ccc(C(=O)NCC(=O)N/N=C/c2c(C)[nH]c3ccccc23)cc1OC,IC50,cells,7.07 µM (active)
CCCCNC(=S)N(C)/N=C/c1ccc(OCC(=O)Nc2c(C)cc(C)cc2C)c(OC)c1,EC50,[9],66.4 µM (active)
same,EC50,[10],95.1 µM (active)
CC(=N)/C(C#N)=C(/O)COc1ncnc2ccccc12,IC50,cells,1.77 µM (active)
CCCOc1ccc(/C=N/NC(=O)CSCc2ccc([N+](=O)[O-])cc2)cc1OCC,IC50,[2],20 µM (active)
CCOC(=O)c1c(NC(=O)N/N=C/c2ccc(O)c(OC)c2)sc(C(C)=O)c1C,IC50,[6],1.17 µM (active)
N=c1n(CCN2CCCCC2)c2ccccc2n1CC(O)c1ccc(Cl)c(Cl)c1 (stereo not drawn),EC50,[15],2.08 µM (active)
same,EC50,[9],4.29 µM (active)
same,EC50,[16],> 60 µM (not active)
same,EC50,[10],4.25 µM (active)
CCOC(=O)c1c(C)cc(O)c(C=O)c1O [ETHYL HEMATOMMATE],AC50,Cytochrome P450 3A4,39.8 µM (inconclusive)
C/C=C/c1ccc2c(c1)OCO2 [ISOSAFROLE],AC50,Cytochrome P450 3A4,25.1 µM (inconclusive)
